Assays:
A375 (Melanoma) = assay: combination Emax (second highest fraction inhibited in the dose matrix, 72 h); higher = more inhibition; extreme values may be limits of the assay
Summary of the method: (§1)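 After 24 hours at 37°C and 5% CO2 in 1536-well plates, cells in DMEM/F12 or RPMI plus 10% FBS received two-drug dose matrices for 72 hours. Viability came from CellTiter-Glo 2.0 luminescence and was scaled as inhibition, anchored at 0 by vehicle wells and at 1 by blank wells. Combination Emax is taken as the second-highest inhibition in the matrix, and Bliss excess as the observed combination effect less EA + EB − EA·EB, with EA and EB the single-agent effects.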

C32 (Melanoma) [1] = assay: as above
Summary of the method: as §1

[2] = tested on: SNU-1 (Gastric Carcinoma); assay: Bliss excess, mean over the matrix (fraction); higher = more synergy
Summary of the method: as §1

[3] = tested on: NCI-H1435 (Non-Small Cell Lung Carcinoma); assay: as above
Summary of the method: as §1

NCI-H2452 (Mesothelioma) = assay: as above
Summary of the method: as §1

[4] = tested on: SBC-5 (Small Cell Lung Carcinoma); assay: as above
Summary of the method: as §1

DK-MG (Glioblastoma) = assay: as above
Summary of the method: as §1

[5] = tested on: NCI-H835 (Other Solid Carcinomas); assay: as above
Summary of the method: as §1

[6] = tested on: OCI-M1 (Acute Myeloid Leukemia); assay: as above
Summary of the method: as §1

[7] = tested on: COR-L105 (Lung Adenocarcinoma); assay: as above
Summary of the method: as §1

[8] = tested on: NCI-H2009 (Lung Adenocarcinoma); assay: as above
Summary of the method: as §1

[9] = tested on: CAL-85-1 (Breast Carcinoma); assay: as above
Summary of the method: as §1

[10] = tested on: NCI-H2023 (Non-Small Cell Lung Carcinoma); assay: as above
Summary of the method: as §1

GCIY (Gastric Carcinoma) = assay: as above
Summary of the method: as §1

[11] = tested on: MRK-nu-1 (Breast Carcinoma); assay: as above
Summary of the method: as §1

C32 (Melanoma) [12] = assay: as above
Summary of the method: as §1

[13] = tested on: NTERA-2-cl-D1 (Other Solid Carcinomas); assay: as above
Summary of the method: as §1

[14] = tested on: ATN-1 (T-Lymphoblastic Leukemia); assay: as above
Summary of the method: as §1

SK-N-DZ (Neuroblastoma) = assay: as above
Summary of the method: as §1

[15] = tested on: NCI-H1048 (Small Cell Lung Carcinoma); assay: as above
Summary of the method: as §1
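For Bliss excess, mean over the matrix in this document: after 72 h of two-drug dosing.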

Row | SMILES | combination Emax (A375 (Melanoma)) | combination Emax (C32 (Melanoma) [1]) | Bliss excess [2] | Bliss excess [3] | Bliss excess (NCI-H2452 (Mesothelioma)) | Bliss excess [4] | Bliss excess (DK-MG (Glioblastoma)) | Bliss excess [5] | Bliss excess [6] | Bliss excess [7] | Bliss excess [8] | Bliss excess [9] | Bliss excess [10] | Bliss excess (GCIY (Gastric Carcinoma)) | Bliss excess [11] | Bliss excess (C32 (Melanoma) [12]) | Bliss excess [13] | Bliss excess [14] | Bliss excess (SK-N-DZ (Neuroblastoma)) | Bliss excess [15]
1 | Cc1cc2ncnn2cc1Nc1ncc2c(n1)n(C1CCOCC1)c(=O)n2C [AZD7648] + CN(C)CCCOc1ccc(-c2ccc3ncc4c(c3c2)n(C2CCOCC2)c(=O)n4C)cn1 [AZD0156] (first compound max 10 µM, 7x7, partner max 1 µM) | 0.269 | 0.195 | 0.01 | 0.0091 | -0.0457 | 0.0236 | 0.0157 | 0.0086 | 0.0385 | -0.0369 | -0.0019 | -0.0542 | -0.0192 | -0.0458 | 0.0348 | 0.003 | -0.0248 | 0.0185 | 0.038 | 0.0121
2 | C[C@@H](c1ccc2nccn2c1)n1nnc2ncc(-c3cnn(C)c3)nc21 [Savolitinib] + Cc1c2c(nn1C)CSCc1cc(n(C)n1)CSc1cc(c3ccccc3c1)OCCCc1c(C(=O)O)n(C)c3c-2c(Cl)ccc13 [AZD5991] (first compound max 1 µM, 7x7, partner max 1 µM) | 0.182 | 0.184 | 0.0005 | -0.0263 | -0.109 | 0.0286 | -0.0226 | -0.0267 | 0.0026 | -0.0086 | -0.0063 | -0.0286 | -0.0323 | -0.0423 | 0.0344 | -0.0065 | -0.015 | -0.0293 | 0.002 | 0.0012
3 | Cc1cc2ncnn2cc1Nc1ncc2c(n1)n(C1CCOCC1)c(=O)n2C [AZD7648] + CCN(CCO)CCCOc1ccc2c(Nc3cc(CC(=O)Nc4cccc(F)c4)[nH]n3)ncnc2c1 [AZD2811] (first compound max 10 µM, 7x7, partner max 1 µM) | 0.492 | 0.279 | 0.0214 | 0.0409 | 0.001 | 0.057 | 0.0189 | 0.0595 | 0.0449 | -0.0508 | 0.0669 | -0.0195 | -0.0238 | 0.0949 | 0.0245 | 0.0271 | 0.012 | -0.0768 | 0.088 | -0.0197
4 | COc1cc2ncnc(Nc3ccc(F)c(Cl)c3)c2cc1OCCCN1CCOCC1 [Gefitinib] + CC(C)n1c(=O)n(C)c2cnc3cc(F)c(-c4ccc(OCCCN5CCCCC5)nc4)cc3c21 [AZD1390] (first compound max 10 µM, 7x7, partner max 0.3 µM) | 0.0854 | 0.114 | -0.0701 | -0.0289 | -0.108 | -0.0649 | -0.0817 | -0.0381 | -0.065 | -0.0374 | -0.0519 | -0.0236 | -0.0463 | 0.0145 | 0.0492 | -0.0368 | -0.0643 | -0.0377 | -0.0375 | -0.0556
5 | Cc1cc2ncnn2cc1Nc1ncc2c(n1)n(C1CCOCC1)c(=O)n2C [AZD7648] + C[C@@H]1COCCN1C2=NC(=NC(=C2)C3(CC3)[S@](=N)(=O)C)C4=C5C=CNC5=NC=C4 [AZD6738] (first compound max 10 µM, 7x7, partner max 10 µM) | 0.687 | 0.649 | -0.013 | 0.0536 | 0.0084 | 0.0284 | 0.0297 | 0.0417 | 0.0125 | -0.0511 | 0.0494 | 0.0307 | 0.0722 | 0.0524 | 0.0054 | -0.0021 | 0.0533 | 0.0406 | -0.018 | 0.0425
6 | Cc1nc(Nc2ncc(C(=O)Nc3c(C)cccc3Cl)s2)cc(N2CCN(CCO)CC2)n1 [Dasatinib] + CC(=O)Nc1cccc(-n2c(=O)n(C3CC3)c(=O)c3c(Nc4ccc(I)cc4F)n(C)c(=O)c(C)c32)c1 [Trametinib] (first compound max 2 µM, 7x7, partner max 1 µM) | 0.794 | 0.984 | -0.0263 | 0.0975 | -0.0671 | 0.025 | -0.0685 | -0.0662 | 0.0346 | 0.0567 | 0.0589 | 0.0959 | -0.0228 | 0.052 | -0.0688 | -0.0198 | 0.0638 | -0.089 | -0.0332 | -0.0669
7 | C[C@@H](c1ccc2nccn2c1)n1nnc2ncc(-c3cnn(C)c3)nc21 [Savolitinib] + CC1(C)CCC(CN2CCN(c3ccc(C(=O)NS(=O)(=O)c4ccc(NCC5CCOCC5)c([N+](=O)[O-])c4)c(Oc4cnc5[nH]ccc5c4)c3)CC2)=C(c2ccc(Cl)cc2)C1 [Venetoclax] (first compound max 1 µM, 7x7, partner max 1 µM) | 0.142 | 0.171 | -0.0821 | -0.0034 | -0.0714 | -0.0451 | -0.119 | -0.0355 | -0.0215 | -0.0423 | -0.041 | -0.0468 | -0.0161 | -0.0732 | 0.0851 | -0.0338 | -0.0678 | -0.0192 | -0.0158 | -0.0419
8 | Cc1cc2ncnn2cc1Nc1ncc2c(n1)n(C1CCOCC1)c(=O)n2C [AZD7648] + C=CCn1c(=O)c2cnc(Nc3ccc(N4CCN(C)CC4)cc3)nc2n1-c1cccc(C(C)(C)O)n1 [AZD1775] (first compound max 10 µM, partner max 1 µM) | 0.592 | 0.434 | -0.0572 | 0.0816 | 0.0647 | -0.0136 | 0.0398 | 0.0229 | -0.044 | -0.0431 | -0.0271 | -0.0292 | 0.027 | -0.028 | 0.0279 | 0.0106 | -0.0791 | -0.0176 | 0.0207 | -0.0505

From the supplement of paper PMC11061612
